“Also recorded” adds a separate entry of the source. Counter-ions that a name gives are not always drawn.
Key:
[1] = Thermal stability of pure crystalline solid; format: physicochemical; conditions: 100 °C for 12 h
[2] = Rearrangement in simulated gastric fluid or equimolar aqueous HCl (HPLC); format: physicochemical; conditions: 0.08 M aq. HCl, 1 g/L NaCl and 1.6 g/L pepsin, 6 h at 37 °C
[3] = Kinetics of acid-catalysed rearrangement of 2 to 4 in aqueous HCl (HPLC); conditions: for half-life at 50 µg/mL: 6 M aqueous HCl, Half life of rearrangement, initial concentration 50 µg/mL, n = 3
CHO-K1 cells = assay: MTT cytotoxicity assay toward CHO cell line; conditions: 72 h exposure, whole concentration range, up to 1 mM
human mAChR M1 = biological target: T1, human mAChR M1 (Homo sapiens, UniProt P11229); assay: Competitive [3H]NMS radioligand binding assay on CHO cell membranes, mAChR M1; conditions: for Ki: [3H]NMS 0.2 nM, CHO cell membranes with human receptor, 1.5 h at 20 °C, this work
T1 construct: host or cells: CHO-K1 (stably transfected), membrane preparation
T1 sequence (P11229 1-460): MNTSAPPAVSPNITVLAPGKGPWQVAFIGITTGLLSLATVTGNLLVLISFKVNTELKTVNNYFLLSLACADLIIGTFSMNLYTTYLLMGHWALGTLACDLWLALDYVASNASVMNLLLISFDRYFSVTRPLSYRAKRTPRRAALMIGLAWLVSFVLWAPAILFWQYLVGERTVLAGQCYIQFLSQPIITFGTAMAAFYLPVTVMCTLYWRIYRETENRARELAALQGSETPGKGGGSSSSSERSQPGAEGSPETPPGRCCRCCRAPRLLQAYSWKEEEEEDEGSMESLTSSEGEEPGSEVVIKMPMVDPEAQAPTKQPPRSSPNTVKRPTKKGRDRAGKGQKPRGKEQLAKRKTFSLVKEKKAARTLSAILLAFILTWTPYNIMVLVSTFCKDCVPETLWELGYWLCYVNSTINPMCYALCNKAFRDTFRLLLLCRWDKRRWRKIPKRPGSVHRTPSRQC
Experimental: (§1) Filter bound decay rate is normalized to 1 for binding in absence of competitor and to 0 for nonspecific binding.
(§2) Membrane preparations of mAChR M1, M2, M3, M4 or M5 receptors were produced from the respective cell line as follows. The medium of a confluent T175 cell culture flask was poured off and the cell layer was washed with ice-cold PBS. Cells were scraped off and suspended in 2 mL 10 mM Tris/HCl, 1 mM EDTA buffer (pH 7.4) and 200 µL protease inhibitor cocktail. A cell homogenate obtained from passing the cell suspension through a G29 needle was centrifuged (10 min, 1,000 g, 4 °C).
(§3) A competitive radioligand binding assay using [^3H]NMS and variable concentrations of test compounds was performed in assay buffer (50 mM Tris/HCl, 10 mM MgCl2, 1 mM EDTA). Polypropylene tubes were filled with 5 µL aqueous solution of the test compounds, 50 µL radioligand solution in assay buffer and 445 µL membrane suspension in assay buffer (diluted approx. 1:100), shaken and incubated for 1.5 h at 20 °C. Nonspecific binding of the radioligand was determined by using 5 µL of a 1 µM scopolamine hydrobromide solution. […] Specific binding was calculated as total binding minus nonspecific binding. To delineate the IC50 value, specific binding was plotted against the logarithm of the test compound concentration and fitted by a variable slope logistic regression.
(§4) Table S3: HPLC parameters of the methods for the analysis of pirenzepine, telenzepine and their rearrangement products. LOD = limit of
(§5) detection, LOL = limit of linearityi
(§6) Stably transfected CHO-K1 cells containing human muscarinic receptors M1-M5 were purchased from Missouri
(§7) University of Science and Technology cDNA Resource Center (Cell Catalog#: CEM1000000, CEM2000000,
(§8) Limited) supplemented with 10% FBS (Gibco, Life Tec hnologies Limited) and 250 µg/mL Geneticin® (G418, Thermo
Fisher) at 37 °C and 5% CO2 in a cell incubator. Cells were passaged using Gibco Trypsin -EDTA (0.05%). A solution of
P2714-1BTL, Sigma-Aldrich in 10 mL water was used as protease inhibitor cocktail.

human mAChR M5 = biological target: T2, human mAChR M5 (Homo sapiens, UniProt P08912); assay: Competitive [3H]NMS radioligand binding assay on CHO cell membranes, mAChR M5; conditions: CHO cell membranes with human receptor, 1.5 h at 20 °C, this work
T2 construct: host or cells: CHO-K1 (stably transfected), membrane preparation
T2 sequence (P08912 1-532): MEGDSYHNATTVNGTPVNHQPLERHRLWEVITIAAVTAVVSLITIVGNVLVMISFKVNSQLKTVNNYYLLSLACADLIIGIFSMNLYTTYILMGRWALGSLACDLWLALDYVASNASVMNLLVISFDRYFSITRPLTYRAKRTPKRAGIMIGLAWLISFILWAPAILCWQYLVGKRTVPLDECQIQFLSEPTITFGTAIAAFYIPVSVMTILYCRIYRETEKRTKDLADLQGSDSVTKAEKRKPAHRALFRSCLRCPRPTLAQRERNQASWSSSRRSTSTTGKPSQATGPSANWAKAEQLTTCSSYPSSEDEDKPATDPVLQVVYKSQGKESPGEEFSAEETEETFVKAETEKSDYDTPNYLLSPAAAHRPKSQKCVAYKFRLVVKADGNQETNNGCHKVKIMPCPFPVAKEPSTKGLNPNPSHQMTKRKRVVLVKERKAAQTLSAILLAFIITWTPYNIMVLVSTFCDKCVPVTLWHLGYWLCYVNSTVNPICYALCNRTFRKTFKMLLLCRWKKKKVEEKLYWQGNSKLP
Experimental: as §1, §2
as §3, with “solution. The concentration of the radioligand solution was chosen as 2 nM, 3 nM, 8 nM, 2 nM and 10 nM for M1-M5, respectively.” for “solution.”
as §4, §5, §6, §7, §8
(§9) Fisher) at 37 °C and 5% CO2 in a cell incubator. Cells were passaged using Gibco Trypsin -EDTA (0.05%). A solution of […]

human mAChR M3 = biological target: T3, human mAChR M3 (Homo sapiens, UniProt P20309); assay: Competitive [3H]NMS radioligand binding assay on CHO cell membranes, mAChR M3; conditions: CHO cell membranes with human receptor, 1.5 h at 20 °C, this work
T3 construct: host or cells: CHO-K1 (stably transfected), membrane preparation
Experimental: as §1, §2
as §3, with “solution. The concentration of the radioligand solution was chosen as 2 nM, 3 nM, 8 nM, 2 nM and 10 nM for M1-M5, respectively.” for “solution.”
as §4, §5, §6, §7, §8, §9

mAChR M4 = conditions: read-out: Ki mAChR M4; 90 min at 37 °C, NG108-15 cells; cited from earlier work
human mAChR M4 = biological target: T4, human mAChR M4 (Homo sapiens, UniProt P08173); assay: Competitive [3H]NMS radioligand binding assay on CHO cell membranes, mAChR M4; conditions: CHO cell membranes with human receptor, 1.5 h at 20 °C, this work
T4 construct: host or cells: CHO-K1 (stably transfected), membrane preparation
T4 sequence (P08173 1-479): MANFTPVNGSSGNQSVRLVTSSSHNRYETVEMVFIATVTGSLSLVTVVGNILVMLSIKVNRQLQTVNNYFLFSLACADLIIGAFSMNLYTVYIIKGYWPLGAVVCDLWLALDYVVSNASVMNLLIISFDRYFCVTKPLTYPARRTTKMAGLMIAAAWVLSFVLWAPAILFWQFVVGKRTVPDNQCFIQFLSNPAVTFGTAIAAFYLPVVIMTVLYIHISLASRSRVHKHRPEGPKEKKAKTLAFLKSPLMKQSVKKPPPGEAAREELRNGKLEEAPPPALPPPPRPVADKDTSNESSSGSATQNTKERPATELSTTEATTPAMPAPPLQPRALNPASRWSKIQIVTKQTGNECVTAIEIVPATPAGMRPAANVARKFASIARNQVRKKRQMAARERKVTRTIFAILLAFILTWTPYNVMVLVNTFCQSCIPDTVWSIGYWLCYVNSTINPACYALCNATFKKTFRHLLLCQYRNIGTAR
Experimental: as §1, §2
as §3, with “solution. The concentration of the radioligand solution was chosen as 2 nM, 3 nM, 8 nM, 2 nM and 10 nM for M1-M5, respectively.” for “solution.”
as §4, §5, §6, §7, §8, §9

human mAChR M2 = biological target: T5, human mAChR M2 (Homo sapiens, UniProt P08172); assay: Competitive [3H]NMS radioligand binding assay on CHO cell membranes, mAChR M2; conditions: CHO cell membranes with human receptor, 1.5 h at 20 °C, this work
T5 construct: host or cells: CHO-K1 (stably transfected), membrane preparation
T5 sequence (P08172 1-466): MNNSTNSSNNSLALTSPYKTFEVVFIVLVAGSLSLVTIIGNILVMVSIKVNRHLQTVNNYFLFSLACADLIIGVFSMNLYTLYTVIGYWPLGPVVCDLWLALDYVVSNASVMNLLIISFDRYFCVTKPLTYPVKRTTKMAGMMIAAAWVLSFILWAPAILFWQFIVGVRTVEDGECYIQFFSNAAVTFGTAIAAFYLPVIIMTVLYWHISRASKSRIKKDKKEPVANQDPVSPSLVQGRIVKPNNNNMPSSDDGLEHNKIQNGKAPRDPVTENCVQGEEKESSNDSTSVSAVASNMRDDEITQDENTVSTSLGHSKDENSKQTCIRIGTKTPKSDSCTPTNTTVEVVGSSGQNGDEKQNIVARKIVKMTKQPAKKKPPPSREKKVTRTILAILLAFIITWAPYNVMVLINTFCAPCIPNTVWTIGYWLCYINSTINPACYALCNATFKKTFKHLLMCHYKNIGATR
Experimental: as §1, §2
as §3, with “solution. The concentration of the radioligand solution was chosen as 2 nM, 3 nM, 8 nM, 2 nM and 10 nM for M1-M5, respectively.” for “solution.”
as §4, §5, §6, §7, §8, §9

mAChR M2 = conditions: read-out: Ki mAChR M2; 90 min at 37 °C, membranes from rat heart tissue; cited from earlier work
mAChR M3 = biological target: mAChR M3; design: method as in PMID 2066986; conditions: 90 min at 37 °C, transfected A9L cells; cited from earlier work
mAChR M1 = conditions: read-out: Ki mAChR M1; 90 min at 37 °C, transfected A9L cells; cited from earlier work

T3 sequence (P20309 whole entry): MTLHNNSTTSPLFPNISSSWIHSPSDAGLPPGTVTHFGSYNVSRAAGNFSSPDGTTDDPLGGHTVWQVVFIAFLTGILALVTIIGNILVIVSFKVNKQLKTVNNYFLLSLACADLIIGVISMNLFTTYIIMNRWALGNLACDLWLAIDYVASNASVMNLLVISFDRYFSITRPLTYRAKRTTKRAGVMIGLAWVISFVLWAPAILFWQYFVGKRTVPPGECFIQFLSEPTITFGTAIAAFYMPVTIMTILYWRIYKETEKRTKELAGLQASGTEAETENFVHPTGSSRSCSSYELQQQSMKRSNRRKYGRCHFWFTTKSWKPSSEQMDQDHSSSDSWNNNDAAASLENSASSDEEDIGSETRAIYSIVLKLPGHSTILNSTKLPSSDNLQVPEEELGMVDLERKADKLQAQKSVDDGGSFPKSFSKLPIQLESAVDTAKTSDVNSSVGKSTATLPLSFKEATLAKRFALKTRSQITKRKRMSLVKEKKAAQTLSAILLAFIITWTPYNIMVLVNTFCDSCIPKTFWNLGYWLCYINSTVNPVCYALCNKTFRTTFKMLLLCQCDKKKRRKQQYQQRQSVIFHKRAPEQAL

SMILES	Formation of 4 on heating the solid [1]	Isomerization of 2 to 4 in simulated gastric fluid [2]	Formation of 4 from 2 ([3]; 0.1 M aqueous HCl at 37 °C, 55 °C or 75 °C overnight) [%]	Activation energy of the rearrangement ([3]; 6 M HCl, from slope of Arrhenius plot) [kJ/mol]	half-life at 50 µg/mL ([3]; 6 M HCl, 37 °C) [min]	half-life at 50 µg/mL ([3]; 6 M HCl, 55 °C) [min]	half-life at 50 µg/mL ([3]; 6 M HCl, 75 °C) [min]	Conversion of 2 to 4 ([3]; strong excess of aqueous HCl (6 M), pseudo first order kinetic)	Effect on cell viability (MTT assay) (CHO-K1 cells)	Ki (human mAChR M1) [nM]	Loss of affinity towards M1 on rearrangement (affinity constant of rearranged product vs parent) (human mAChR M1; rearranged product (4 or 5) versus parent drug) [fold]	Ki (human mAChR M5) [nM]	Ki (human mAChR M3) [µM]	Ki (mAChR M4) [nM]	Ki (human mAChR M4) [nM]	Ki (human mAChR M2) [µM]	Ki (mAChR M2) [nM]	Ki (mAChR M3) [nM]	Ki (mAChR M1) [nM]
CN1CCN(CC(=O)N2c3ccccc3C(=O)Nc3cccnc32)CC1 [Compound 2, Pirenzepine dihydrochloride]	did not result in formation of 4 in detectable amounts	neither simulated gastric fluid (0.08 M aq. HCl, 1 g/L NaCl and 1.6 g/L pepsin) nor equimolar aqueous HCl solution caused detectable isomerization	< 1	83.2 ± 1.9	830 ± 30	117 ± 16	25 ± 2	quantitative conversion	No cytotoxic effect	–	–	–	–	–	–	–	–	–	–
Cc1scc2c1N(C(=O)CN1CCN(C)CC1)c1ccccc1NC2=O [telenzepine 2HCl, Telenzepine dihydrochloride]	–	–	–	–	–	–	–	–	No cytotoxic effect	1.8 ± 0.8	780	16 ± 9	0.012 ± 0.002	17.4	29 ± 16	0.026 ± 0.005	50.3	6.9	1.8
Cc1scc(C(=O)O)c1-n1c(CN2CCN(C)CC2)nc2ccccc21 [Compound 5, 5-methyl-4-(2-((4-methylpiperazin-1-yl)methyl)-1H-benzo[d]imidazol-1-yl)thiophene-3-carboxylic acid]	–	–	–	–	–	–	–	–	No cytotoxic effect; also recorded: without measurable effect on cell viability	1400 ± 300	–	4100 ± 200	8 ± 3	–	2000 ± 400	10.6 ± 1.5	–	–	–
CN1CCN(Cc2nc3cccnc3n2-c2ccccc2C(=O)O)CC1.Cl.Cl [Compound 4, 2-(2-((4-methylpiperazin-1-yl)methyl)-3H-imidazo[4,5-b]pyridin-3-yl)benzoic acid dihydrochloride]	–	–	–	–	–	–	–	–	No cytotoxic effect; also recorded: without measurable effect on cell viability	600 ± 20	–	360 ± 20	7 ± 2	–	1200 ± 200	47 ± 19	–	–	–

From PMC8642400, “Unexpected scaffold rearrangement product of pirenzepine found in commercial samples” (Scientific Reports, 2021)
